For one series, the system named is NIH-3T3 cells. The experiment in a line: Matrix Remodeling Measured by Atomic Force Microscopy (NIH-3T3 cell-derived matrix). Type of series: cell-based, mouse. To be noted: TGFβ + ascorbic acid 72 hours, then 10 μM DHX additional 72 hours. The method, then:
Matrix Remodeling Measured by Atomic Force Microscopy: NIH-3T3 cells were plated to confluence onto gelatin coated (Cell Biologics) AFM compatible tissue culture dishes (Willco) in DMEM containing 10% FBS. After cells attached overnight media was replaced with DMEM containing 2% FBS, 2 ng/mL TGFβ, and 20 μg/mL ascorbic acid to promote matrix deposition. After 72 hours, measurements were made using a BioScope Catalyst AFM (Bruker, MA, USA). Microindentations were performed using a 2.5 μm radius sphere-tipped probe (Novascan, IA, USA) with a spring constant determined at ˜100 pN nm^−1 by thermal fluctuation method. For each dish, 3 different areas were analyzed. Force curves were acquired with MIRO 2.0 (NanoScope 9.1; Bruker) at an indentation rate of […] and a ramp size of […] on different points. 75 force curves were performed per cell dish (25 per area). The Young's modulus E was determined by the fitting of force curve by Hertz model using NanoScope Analysis software (Bruker) and considering Poisson's ratio of 0.5. […]
The results above were consistent with DHX not only attenuating key aspects of fibroblast pro-fibrotic activation, but potentially shifting their phenotype toward one that promotes fibrosis clearance and resolution. […] After 72 hours the stiffness of the cells and their cell-derived matrix were measured using atomic force microscopy (AFM). […]

For series [1], the system named is bleomycin-induced pulmonary fibrosis. The experiment in a line: Bleomycin Mouse Study, dihydrexidine treatment. Type of series: in vivo. On the procedure: Bleomycin Mouse Study: In the initial in vivo siRNA study (FIG. 5), adult male age-matched C57BL/6N mice at 6-8 weeks of age were purchased from the National Cancer Institute (NCI)-Frederick Mouse Repository (Frederick, MD, USA). All experiments were performed in accordance with National Institute of Health guidelines and protocols approved by the Massachusetts General Hospital Subcommittee on Research Animal Care, and maintained all mice in a specific pathogen-free (SPF) environment certified by the American Association for Accreditation of Laboratory Animal Care (AAALAC). 6-8 weeks old mice were anesthetized with ketamine and xylazine before exposure of the trachea. Lung fibrosis was induced by intratracheal injection of bleomycin (50 μl at 1.2 U/kg) or phosphate buffered saline (PBS; as control) on day 0. After 14 days Small interfering RNA (siRNA) duplexes targeting mouse Yap (L-046247-01-0005) or Taz (L-058248-01-0005) mRNA (Dharmacon) or nontargeting control siRNA were administered in vivo by intratracheal instillation at a single dose of 25 μg (each siRNA) per mouse. On day 21 Mice were sacrificed and lungs harvested for collagen determination and biochemical analyses. To obtain BAL samples for total protein concentration determination, lungs were lavaged with six 0.5-ml aliquots of PBS. BAL samples were centrifuged at 3,000 g for 20 min at 4° C. and transferred the supernatants to siliconized low-binding Eppendorf tubes (PGC Scientifics) for subsequent analysis. Total protein concentration of the BAL fluid was determined by BCA Protein Assay Kit (Pierce). In the dihydrexidine treatment studies (FIG. 4), 8 week old female C57/BL6 mice were purchased from Charles River Laboratories. Mouse lung fibrosis was induced with bleomycin (BLEO; Fresenius Kabi) delivered intratracheally (3 U/kg) to the lungs using MicroSprayer® Aerosolizer (Penn-Century). The Sham mice received sterile 0.9% saline instead using identical methods. Mice were weighed every 24 hrs, and both groups were then randomized at day 10 into DHX and Control treatment groups, matching for the degree of weight change. DHX (5 mg/kg) was administered everyday intranasally (i.n.) dissolved in surfactant (infasurf) which has previously shown to aid in spreading to pulmonary aveoli for 14 days. The control groups of mice received the equivalent vehicle dose of surfactant. Following the final DHX treatment, mice were sacrificed and the right lungs were inflated with 4% paraformaldehyde (PFA) and further incubated in 4% PFA for 24 hours prior processing for paraffin embedding. The left lobe of the lung was snap frozen in liquid nitrogen for RNA isolation and hydroxyproline assay. Experimental procedures were approved by the Mayo Clinic Institutional Animal Care and Use Committee and the animals were handled in accordance with their guidelines.
Histological Scoring: Five μm thick sections were cut from Paraffin embedded lung tissues, and the sections were stained either with hematoxylin and eosin (H&E) or with Masson's Trichrome stain kit (Abcam). All H&E-stained slides and trichrome-stained slides were reviewed in a blinded fashion by a thoracic pathologist. The severity of interstitial and peribronchiolar lung immature and mature fibrosis was estimated on a numerical scale according to Ashcroft et al. For scoring purposes, all H&E stained slides were systematically scanned at 100× magnification and successive 100× fields were scored. Scoring was based on the following scale: 0 (no fibrosis), 1 (minimal interstitial and/or peribronchiolar thickening due to fibrosis), 3 (moderate thickening without obvious architectural distortion), 5 (increased fibrosis with formation of fibrous bands and/or small masses), 7 (severe architectural distortion with large areas of fibrosis and areas of honeycomb changes), and 8 (total fibrous obliteration of the field). The predominant score for each field was recorded. The mean of all scores was calculated for each case. […]

Where [2] appears, read: bleomycin mice, 5 mg/kg once daily i.n., day 24.

For `Oc1cc2c(cc1O)[C@H]1c3ccccc3CN[C@@H]1CC2` (racemic) [Dihydrexidine, dihydrexidine], the “stiffness of cells and cell-derived matrix (AFM)” value in the series with NIH-3T3 cells was “significantly reduced the observed stiffness”. The “lung remodeling in the absence of fibrosis (body weight, histology, collagen, gene expression)” value in series [1] (Sham DHX mice, identical time course and route) was “did not differ from those of control mice”. In series [1] (bleomycin mice, 5 mg/kg once daily i.n. from Day 10), the weight change result is reported as “lost significantly less weight”. Further, in series [1] (setting [2]), the “lung histology (Ashcroft, blinded pathologist)” value is recorded as “nearly completely protected from lung remodeling”; the “staining for YAP and TAZ in the lungs” value is “attenuated by DHX treatment”; the “total collagen in the lungs (hydroxyproline)” value is reported as “nearly identical to sham treated mice”; the “transcript levels of Acta2, Ctgf, Fn1, Col1a1, Col1a2, Yap and Taz in lung” value was “significantly attenuated”.
